Measured values reported in a melting point compilation (Tetko et al.; mined from patent text by program, amines drawn as free bases though some values may be those of a salt).

Row | SMILES | melting point [°C]
1 | CC(C)N1Cc2ccc(F)cc2N(CCN2CC=C(c3c[nH]c4cc(F)ccc34)CC2)S1(=O)=O | 101 to 103
2 | O=C(O)C1=CCN2C=CC=CC2=C1 | 258 to 262
3 | COc1cc2cc(Cc3ccccc3)c(C)cc2c(C(C)C)c1OC | 159 to 161
4 | CC(C)NC(=O)CC(CC1(C(=O)N[C@H]2CCc3ccccc3N(CC(=O)O)C2=O)CCCC1)C(=O)O (some centres not stated) | 145
5 | O=C(NC(=O)C(Br)CBr)Nc1ccccc1 (configuration not stated) | 160 to 161
6 | CC1=Cc2cc(Br)ccc2S1(=O)=O | 149 to 151
7 | CC1=C(C(=O)OCCO)C(c2ccccc2OCc2ccccc2)C([N+](=O)[O-])=C(C)N1 (configuration not stated) | 183 to 185
8 | O=C(c1ccccc1)c1ccc(OCCCCCCCCBr)cc1 | 59 to 61
9 | Cc1cccc(Nc2cc(Nc3ccc(OCC(=O)N(CCO)CCO)cc3)ncn2)c1 | 160 to 162
10 | Cc1c(N)ccc2c(O)c(C(=O)NCc3ccc(Cl)cc3)cnc12 | 256 to 258
11 | O=C(Nc1ccc(S(=O)(=O)N2CCOCC2)cc1)c1cc(Cl)ccc1[N+](=O)[O-] | 243 to 245
12 | CCOc1nn(-c2c(Cl)cc(C(F)(F)F)cc2Cl)c(N)c1C(=O)c1cccc(C(F)(F)F)c1 | 77 to 78
13 | CC(=O)Nc1cc(NC(C)=C2C(=O)OC(=O)C(C(C)=O)=C2O)cc([N+](=O)[O-])c1 | > 270
14 | CC(C)(C)OC(=O)N1CCN(Cc2ccccc2)C(=S)C1 | 126 to 129
15 | O=C(O)CC(NC(=O)C(Cl)Cl)C(=O)O (configuration not stated) | 165 to 168
16 | Oc1ccc(-c2nc3ccccc3[nH]2)cc1 | 286 to 288
17 | O=S(=O)(Nc1cc(Cl)c(Cl)cc1Cl)C(F)(F)F | 104 to 106
18 | C=CCc1cc(F)ccc1OCCCN1CCC2(CC1)C(=O)NCN2c1ccccc1 | 110 to 113
19 | CC(C)(C)c1cc(C=C2SCN(CCO)C2=O)cc(C(C)(C)C)c1O | 131 to 135
20 | COc1cc(C=O)cc2c1OC1(CCCC1)C2 | 54
21 | C=C1CSc2sccc2C1=O | 64 to 65
22 | O=C1c2ccccc2C(=O)N1C1CCC(c2cc(F)c(Br)cc2F)C1 (configuration not stated) | 44 to 47
23 | CSc1ccc(-c2ccc(C(=O)Nc3ccc4cc(CN5CCCC5)cnc4c3C)cc2)cc1 | 206 to 208

Next, values leading:

Row | melting point [°C] | SMILES
24 | 130 to 132 | CC(C)CN1CCN(c2cc3ccccc3c(=O)[nH]2)CC1CO (configuration not stated)
25 | > 250 | Cc1nc2nccc(O)c2cc1Br
26 | 151 to 153 | CN1C(=O)C[C@]2(c3ccccc3)CCCC[C@H]2C1=O (relative stereo)
27 | 205 to 208 | O=C(O)CC1(c2ccccc2)CCCC1C(=O)O (configuration not stated)
28 | 76 to 77 | COc1ccc(C(=O)c2ccccc2N)cc1
29 | 191 to 194 | COC(=O)c1ccc2c(c1)N(C1CC1)C=NS2(=O)=O
30 | 127 to 129 | CCOC(=O)CNC(=O)CN(C(=O)c1ccc(Cl)cc1)c1c(C)cccc1C
31 | 119 to 120 | COc1ccc(-n2c(Cl)ccc2-c2ccc(S(N)(=O)=O)cc2)cc1
32 | 72 to 75 | CCOC(=O)c1ccc2cc[nH]c2c1
33 | 61 to 63 | CCCCCCCCCCCOCc1ccc(C(=O)O)cc1OCCCCCCCCCCC
34 | 152 to 153 | C=Cn1ccnc1C(O)(c1ccccc1)c1ccccc1C(C)(C)C (configuration not stated)
35 | 256 to 257 | O=c1oc2ccccc2c2oc(=S)c(-c3ccccc3)cc12
36 | 266 to 267 | NC1CCN(c2nc3c(cc2F)c(=O)c(C(=O)O)cn3C2CC2)C1 (configuration not stated)
37 | 184 to 186 | Nc1ncnc2ncn(COCCCl)c12
38 | 211 to 215 | CCSC1=CCC2C3CCC4=CC(=O)C=CC4(C)C3(F)C(OC(C)=O)CC12C (configuration not stated)
39 | 125 to 128 | OC(c1ccccc1)C1CCN(CCc2ccccc2)CC1 (configuration not stated)
40 | 116 to 117 | CCOC(=O)C(C#N)C1CC(C)(C)NC(C)(C)C1 (configuration not stated)
41 | 181 to 183 | CCC1c2cccn2-c2ccc(C(F)(F)F)cc2N1S(=O)(=O)c1ccc(O)cc1 (configuration not stated)
42 | 98 to 99 | CCCc1c(C)nc2ccc(C(=O)OC)cn2c1=O
